Reference: patent US20250171431A1, “HETEROCYCLIC INHIBITORS OF IGF-1R FOR TREATMENT OF DISEASE” (HORIZON THERAPEUTICS IRELAND DAC, priority 2023, published 2025)

Molecular target: IGF-1R (Homo sapiens (Human), UniProt P08069)
Experiment: Example B-1: IGF-1R Assay (PC3 cells, IGF1 stimulation, AlphaLISA)
Format: cell-based
Details: 200 ng/mL IGF1 stimulation, read-out: Biological Activity against IGF-1R IC50
Method in brief: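 PC3 cells were serum-starved 2 h, treated with serially diluted compounds for 2 h, then stimulated with IGF1 (200 ng/mL final) for 30 min. Lysates were read by AlphaLISA; % inhibition was calculated relative to vehicle and EC80 controls, with IC50 values binned into ranges.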

Sequence of IGF-1R (P08069 31-1367): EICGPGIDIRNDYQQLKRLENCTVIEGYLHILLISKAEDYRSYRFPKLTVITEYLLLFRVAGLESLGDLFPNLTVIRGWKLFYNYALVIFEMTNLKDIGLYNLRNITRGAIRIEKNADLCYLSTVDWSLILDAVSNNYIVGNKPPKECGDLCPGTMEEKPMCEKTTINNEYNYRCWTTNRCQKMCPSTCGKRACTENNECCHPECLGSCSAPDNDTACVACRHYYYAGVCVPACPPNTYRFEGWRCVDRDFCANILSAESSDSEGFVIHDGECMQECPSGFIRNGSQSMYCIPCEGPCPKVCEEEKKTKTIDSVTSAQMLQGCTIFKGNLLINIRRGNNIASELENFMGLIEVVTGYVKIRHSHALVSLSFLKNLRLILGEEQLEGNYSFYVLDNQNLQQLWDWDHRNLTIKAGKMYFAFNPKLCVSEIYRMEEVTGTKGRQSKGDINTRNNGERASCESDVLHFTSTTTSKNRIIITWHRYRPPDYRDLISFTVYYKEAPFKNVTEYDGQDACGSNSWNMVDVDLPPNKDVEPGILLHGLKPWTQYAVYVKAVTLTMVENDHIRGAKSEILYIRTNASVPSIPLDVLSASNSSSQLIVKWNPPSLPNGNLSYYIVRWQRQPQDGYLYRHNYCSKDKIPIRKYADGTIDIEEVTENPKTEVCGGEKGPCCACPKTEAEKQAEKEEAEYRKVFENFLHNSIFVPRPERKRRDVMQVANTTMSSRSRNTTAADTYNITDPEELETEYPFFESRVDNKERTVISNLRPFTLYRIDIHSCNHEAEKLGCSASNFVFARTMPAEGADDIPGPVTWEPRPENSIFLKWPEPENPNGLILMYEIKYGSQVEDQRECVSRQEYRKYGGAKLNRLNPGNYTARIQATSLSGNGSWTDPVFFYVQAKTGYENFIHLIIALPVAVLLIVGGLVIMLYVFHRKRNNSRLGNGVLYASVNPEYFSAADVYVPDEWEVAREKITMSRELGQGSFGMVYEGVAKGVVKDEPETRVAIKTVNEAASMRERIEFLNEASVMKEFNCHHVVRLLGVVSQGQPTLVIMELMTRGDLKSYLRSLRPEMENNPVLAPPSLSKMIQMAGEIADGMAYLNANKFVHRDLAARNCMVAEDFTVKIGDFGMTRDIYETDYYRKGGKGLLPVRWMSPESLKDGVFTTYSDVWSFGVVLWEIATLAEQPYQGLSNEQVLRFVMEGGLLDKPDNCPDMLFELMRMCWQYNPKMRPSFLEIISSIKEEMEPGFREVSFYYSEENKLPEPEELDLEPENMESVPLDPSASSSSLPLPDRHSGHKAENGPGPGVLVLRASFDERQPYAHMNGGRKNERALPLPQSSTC

Structure (SMILES): COc1cc(Nc2nccc(Nc3cnc4cc(C(F)(F)F)ccc4c3)n2)ccc1O[C@H]1C[C@H](N(C)C)C1 [Compound 341, 2-{3-methoxy-4-[(1r,3r)-3-(dimethylamino)cyclobutoxy]phenylamino}-4-[7-(trifluoromethyl)-3-quinolylamino]pyrimidine]
- IC50: 500 to 2000 nM

Structure (SMILES): COc1cc(Nc2nccc(Nc3cnc4c(C)cccc4c3)n2)ccc1OCCCN1CCCCC1 [Compound 99, 2-[3-methoxy-4-(3-piperidinopropoxy)phenylamino]-4-(8-methyl-3-quinolylamino)pyrimidine]
- IC50: ≤ 500 nM

Structure (SMILES): COC1CCc2cc(Nc3ccnc(Nc4ccc(OCCCN5CCOCC5)cc4)n3)cnc2C1 (stereo not drawn) [Compound 66, 4-(7-methoxy-5,6,7,8-tetrahydro-3-quinolylamino)-2-[p-(3-morpholinopropoxy)phenylamino] pyrimidine]
- IC50: 500 to 2000 nM

Structure (SMILES): COc1cc(Nc2nccc(Nc3cnc4c(c3)SC(C)CC4)n2)ccc1OCCCN1CCCCC1 (stereo not drawn) [Compound 61, 2-[3-methoxy-4-(3-piperidinopropoxy)phenylamino]-4-(2-methyl-3,4-dihydro-2H-1-thia-5-azanaphth-7-ylamino)pyrimidine]
- IC50: ≤ 500 nM

Structure (SMILES): FC(F)(F)Oc1cccc2cc(Nc3ccnc(Nc4ccc(OCCCN5CCOCC5)cc4)n3)cnc12 [Compound 404, 2-[p-(3-morpholinopropoxy)phenylamino]-4-(8-trifluoromethoxy-3-quinolylamino)pyrimidine]
- IC50: 2000 to 10000 nM

Structure (SMILES): COc1cc(Nc2nccc(Nc3cnc4ccc(Br)cc4c3)n2)ccc1OCCCN1CCCCC1 [Compound 421, 4-(6-bromo-3-quinolylamino)-2-[3-methoxy-4-(3-piperidinopropoxy)phenylamino]pyrimidine]
- IC50: ≤ 500 nM

Structure (SMILES): COc1cc(Nc2nccc(Nc3ccc4ncc(Br)cc4n3)n2)ccc1O[C@H]1C[C@@H](N(C)C)C1 [Compound 314, 4-(7-bromo-1,5-diaza-2-naphthylamino)-2-{3-methoxy-4-[(1s,3s)-3-(dimethylamino)cyclobutoxy]phenylamino}pyrimidine]
- IC50: > 10000 nM

Structure (SMILES): FC(F)(F)c1cccc2cc(Nc3ccnc(Nc4ccc(OCCCN5CCOCC5)cc4)n3)cnc12 [Compound 415, 2-[p-(3-morpholinopropoxy)phenylamino]-4-[8-(trifluoromethyl)-3-quinolylamino]pyrimidine]
- IC50: 2000 to 10000 nM

Structure (SMILES): COc1cc(Nc2nccc(Nc3cnc4c(c3)CC3(CC4)OCCO3)n2)ccc1OCCCN1CCCCC1 [Compound 303, 4-(7′,8′-dihydro-5′H-spiro[1,3-dioxolane-2,6′-quinolin]-3′-ylamino)-2-[3-methoxy-4-(3-piperidinopropoxy)phenylamino] pyrimidine]
- IC50: ≤ 500 nM

Structure (SMILES): COc1cc(N2CCN(C)CC2)ccc1Nc1nccc(Nc2cnc3cc(Cl)ccc3c2)n1 [Compound 464, 4-(7-chloro-3-quinolylamino)-2-[2-methoxy-4-(4-methyl-1-piperazinyl)phenylamino] pyrimidine]
- IC50: ≤ 500 nM

Structure (SMILES): COc1cc(Nc2nccc(Nc3cnc4cccc(Cl)c4c3)n2)ccc1OCCCN1CCCCC1 [Compound 422, 4-(5-chloro-3-quinolylamino)-2-[3-methoxy-4-(3-piperidinopropoxy)phenylamino]pyrimidine]
- IC50: ≤ 500 nM

Structure (SMILES): COc1cc(Nc2nccc(Nc3cnc4c(c3)CC3(CC4)OCCO3)n2)ccc1O[C@H]1C[C@@H](N(C)C)C1 [Compound 322, 4-(7′,8′-dihydro-5′H-spiro[1,3-dioxolane-2,6′-quinolin]-3′-ylamino)-2-{3-methoxy-4-[(1s,3s)-3-(dimethylamino)cyclobutoxy]phenylamino}pyrimidine]
- IC50: ≤ 500 nM

Structure (SMILES): COc1cc(Nc2nccc(Nc3cnc4cc(F)ccc4c3)n2)ccc1OCCCN1CCCCC1 [Compound 97, 4-(7-fluoro-3-quinolylamino)-2-[3-methoxy-4-(3-piperidinopropoxy)phenylamino]pyrimidine]
- IC50: ≤ 500 nM

Structure (SMILES): COc1cc(Nc2nccc(Nc3cnc4cc(F)c(F)cc4c3)n2)cnc1O[C@H]1C[C@@H](N(C)C)C1 [Compound 289, 4-(6,7-difluoro-3-quinolylamino)-2-{5-methoxy-6-[(1s,3s)-3-(dimethylamino)cyclobutoxy]-3-pyridylamino}pyrimidine]
- IC50: 500 to 2000 nM

Structure (SMILES): COc1cc(Nc2nccc(Nc3cnc4ccccc4c3)n2)ccc1N1CCC(N2CCN(C)CC2)CC1 [Compound 2, 2-{3-methoxy-4-[4-(4-methyl-1-piperazinyl)-1-piperidyl]phenylamino}-4-(3-quinolylamino)pyrimidine]
- IC50: ≤ 500 nM

Structure (SMILES): COc1cc(Nc2nccc(Nc3cnc4ccc(Cl)cc4c3)n2)ccc1O[C@H]1C[C@H](N2CCS(=O)(=O)CC2)C1 [Compound 25, 4-[(1r,3r)-3-{4-[4-(6-chloro-3-quinolylamino)-2-pyrimidinylamino]-2-methoxyphenoxy}cyclobutyl]-1λ^6,4-thiazinane-1,1-dione]
- IC50: ≤ 500 nM

Structure (SMILES): COc1cc(N2CCC(C)(O)CC2)ncc1Nc1ncc(F)c(Nc2cc3ccccc3nc2C(N)=O)n1 [Compound 492, 3-{5-fluoro-2-[6-(4-hydroxy-4-methyl-1-piperidyl)-4-methoxy-3-pyridylamino]-4-pyrimidinylamino}-2-quinolinecarboxamide]
- IC50: ≤ 500 nM

Structure (SMILES): N#Cc1ccc2ncc(Nc3ccnc(Nc4ccc(OCCCN5CCOCC5)cc4)n3)cc2c1 [Compound 396, 3-{2-[p-(3-morpholinopropoxy)phenylamino]-4-pyrimidinylamino}-6-quinolinecarbonitrile]
- IC50: 2000 to 10000 nM

Structure (SMILES): CN(C)[C@H]1C[C@@H](Oc2ccc(Nc3nccc(Nc4cnc5c(c4)OCCO5)n3)cc2)C1 [Compound 260, 4-(2,3-dihydro-1,4-dioxa-5-aza-7-naphthylamino)-2-{p-[(1s,3s)-3-(dimethylamino)cyclobutoxy]phenylamino}pyrimidine]
- IC50: ≤ 500 nM

Structure (SMILES): COc1cc(Nc2nccc(Nc3cc4cccc(F)c4[nH]c3=O)n2)cnc1N1CCNC(C(F)F)C1 (stereo not drawn) [Compound 233, 3-(2-{6-[3-(difluoromethyl)-1-piperazinyl]-5-methoxy-3-pyridylamino}-4-pyrimidinylamino)-8-fluoro-1,2-dihydro-2-quinolinone]
- IC50: ≤ 500 nM

Structure (SMILES): COc1cc(Nc2nccc(Nc3cnc4c(Cl)cccc4c3)n2)ccc1OCCCN1CCOCC1 [Compound 413, 4-(8-chloro-3-quinolylamino)-2-[3-methoxy-4-(3-morpholinopropoxy)phenylamino]pyrimidine]
- IC50: ≤ 500 nM

Structure (SMILES): COc1cc(Nc2nccc(Nc3cnc4ccccc4c3)n2)ccc1O[C@H]1C[C@H](N2CCOCC2)C1 [Compound 22, 2-{3-methoxy-4-[(1r,3r)-3-morpholinocyclobutoxy]phenylamino}-4-(3-quinolylamino)pyrimidine]
- IC50: ≤ 500 nM

Structure (SMILES): COc1cc(Nc2nccc(Nc3cnc4c(c3)OCC(C)(C)O4)n2)cnc1O[C@H]1C[C@@H](N(C)C)C1 [Compound 271, 4-(3,3-dimethyl-2,3-dihydro-1,4-dioxa-5-aza-7-naphthylamino)-2-{5-methoxy-6-[(1s,3s)-3-(dimethylamino)cyclobutoxy]-3-pyridylamino}pyrimidine]
- IC50: ≤ 500 nM

Structure (SMILES): COc1cc(Nc2nccc(Nc3cnc4cc(Br)cnc4c3)n2)ccc1OC1CN(C)C1 [Compound 292, 4-(7-bromo-1,5-diaza-3-naphthylamino)-2-[3-methoxy-4-(1-methyl-3-azetidinyloxy)phenylamino] pyrimidine]
- IC50: 2000 to 10000 nM
